Results reported in article PMC2850882, “Two additive mechanisms impair the differentiation of 'substrate-selective' p38 inhibitors from classical p38 inhibitors in vitro” (BMC Systems Biology, 2010).
Like-named read-outs stand apart in the source and are kept apart here.

Assays:
p38 = target: T1, p38 (Homo sapiens, UniProt Q16539); test: ATP-p38 affinity (in-house measurement); type: binding; conditions: kinetic model parameter
T1 construct: made in house
From the text: In order to aid in the interpretation of the dual substrate assay, we developed a simple kinetic model of p38-mediated phosphorylation of two substrates: ATF2 and MK2 (diagrammed in Figure 3a). Since p38 has a single kinase domain and ATP binding site, we assumed that p38 can only act on a single substrate at a time. For each substrate, a random-order bi-substrate (substrate + ATP) reaction mechanism was assumed. Active p38 can reversibly bind ATP, with affinity KD, ATP and ATP binding is independent of further complex formation. Active p38 (ATP bound and unbound) can reversibly bind to ATF2 or MK2 to form complexes p38-ATF2 or p38-MK2, respectively. Each complex undergoes an irreversible catalysis step to form products phospho-ATF2 (and ADP) or phospho-MK2 (and ADP). The model equations are a set of ordinary differential equations written in terms of mass-action kinetics. For the case where only one substrate is present, this model reduces to the single substrate assay.

[1] = target: p38-alpha (MK2 phosphorylation); parameters: method as in PMID 15362850; conditions: read-out: KI, app, p38-alpha-dependent MK2 phosphorylation; cited from earlier work
[2] = target: T2, p38 (phosphorylation of MK2) (Homo sapiens, UniProt Q16539); test: Single substrate assay, phospho-MK2 readout (MSD); type: biochemical; conditions: MK2 only; measured at 30 min; ± standard error
T2 construct: made in house
T2 sequence (Q16539 whole entry): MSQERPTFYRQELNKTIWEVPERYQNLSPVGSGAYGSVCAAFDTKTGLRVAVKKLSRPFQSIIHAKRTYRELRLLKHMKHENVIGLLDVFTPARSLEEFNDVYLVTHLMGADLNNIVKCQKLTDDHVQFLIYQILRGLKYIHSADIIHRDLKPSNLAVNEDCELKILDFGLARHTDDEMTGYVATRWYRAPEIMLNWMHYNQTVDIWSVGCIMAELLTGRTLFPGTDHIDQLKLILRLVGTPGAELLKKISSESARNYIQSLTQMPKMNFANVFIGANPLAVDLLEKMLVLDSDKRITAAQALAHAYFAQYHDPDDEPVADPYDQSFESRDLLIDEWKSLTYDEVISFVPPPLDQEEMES
Experimental: (§1) In each case, the degree of phosphorylation serves as a readout of the activity of p38 for its respective substrate.
(§2) The ability of active p38 to phosphorylate ATF2, MK2 or both was tested in a biochemical assay. Reagents were added in the following order: compound, substrate(s), ATP, p38 for a final reaction volume of 40 ul in low protein binding 96-well plates (Immulon-1B). […] Reactions were performed in buffer containing 20 mM HEPES pH 7.5, 10 mM MgCl2, 0.01% BSA, 0.0005% Tween-20, 2% DMSO and 0.1 mM DTT. Reactions were quenched with 40 ul of buffer containing 50 mM HEPES pH 7.5, 30 mM EDTA following different incubation times. Phosphorylated ATF2 and phosphorylated MK2 were assayed as described below. Compounds were diluted in DMSO (Sigma).
Phospho-MK2 was measured with the MSD platform using an in-house assay. […] Plates were blocked with 3% MSD Blocker A in MSD Tris Wash Buffer for at least 1 hr at RT. […] Plates were incubated for > 3 hr at RT, washed 4× with 150 ul MSD Tris Wash Buffer and read on the Meso-Scale Discovery Sector imager using 2× MSD Read Buffer T.

[3] = target: T3, p38 (phosphorylation of ATF2 in presence of MK2) (Homo sapiens, UniProt Q16539); test: ATF2/MK2 dual substrate assay, phospho-ATF2 readout (MSD); type: biochemical
T3 construct: made in house
T3 sequence (Q16539 whole entry): as above
Experimental: (§3) To this end, we designed a dual-substrate assay in which p38 could simultaneously phosphorylate MK2 and/or ATF2. The assay conditions chosen were 0.5 nM p38, 100 nM ATF2, 10 nM MK2, 50 uM ATP. As with the single substrate assay, MK2 phosphorylation was assayed at 30 min and ATF2 phosphorylation was assayed at 120 min to ensure that each measurement was within the linear range of the assay. ATP levels were measured at the end of the assay, to confirm that it was not being depleted.
as §2
Phospho-ATF2 was measured with the Meso-Scale Discovery (MSD) platform using an in-house assay. […] Plates were incubated for > 3 hr at RT, washed 4× with 150 ul MSD Tris Wash Buffer and read on the Meso-Scale Discovery Sector imager using 2× MSD Read Buffer T.

[4] = target: T4, p38 (phosphorylation of MK2 in presence of ATF2) (Homo sapiens, UniProt Q16539); test: ATF2/MK2 dual substrate assay, phospho-MK2 readout (MSD); type: biochemical; conditions: 0.5 nM p38, 100 nM ATF2, 10 nM MK2, 50 uM ATP; measured at 30 min; ± standard error
T4 construct: made in house
T4 sequence (Q16539 whole entry): as above
Experimental: as §3, §2
Phospho-MK2 was measured with the MSD platform using an in-house assay. […] Plates were incubated for > 3 hr at RT, washed 4× with 150 ul MSD Tris Wash Buffer and read on the Meso-Scale Discovery Sector imager using 2× MSD Read Buffer T.

[5] = target: T5, p38 (phosphorylation of ATF2) (Homo sapiens, UniProt Q16539); test: Single substrate assay, phospho-ATF2 readout (MSD); type: biochemical
T5 construct: made in house
T5 sequence (Q16539 whole entry): as above
Experimental: as §1, §2
Phospho-ATF2 was measured with the Meso-Scale Discovery (MSD) platform using an in-house assay. […] Plates were blocked with 3% MSD Blocker A in MSD Tris Wash Buffer for at least 1 hr at RT. […] Plates were incubated for > 3 hr at RT, washed 4× with 150 ul MSD Tris Wash Buffer and read on the Meso-Scale Discovery Sector imager using 2× MSD Read Buffer T.

[6] = target: p38-alpha (ATF-2 phosphorylation); parameters: method as in PMID 15362850; conditions: read-out: KI, app, phosphorylation of ATF-2; cited from earlier work
p38-alpha (Homo sapiens) [7] = target: p38-alpha (Homo sapiens) (UniProt Q16539); conditions: cited from earlier work
Chain of p38-alpha (Homo sapiens) (Q16539 2-360): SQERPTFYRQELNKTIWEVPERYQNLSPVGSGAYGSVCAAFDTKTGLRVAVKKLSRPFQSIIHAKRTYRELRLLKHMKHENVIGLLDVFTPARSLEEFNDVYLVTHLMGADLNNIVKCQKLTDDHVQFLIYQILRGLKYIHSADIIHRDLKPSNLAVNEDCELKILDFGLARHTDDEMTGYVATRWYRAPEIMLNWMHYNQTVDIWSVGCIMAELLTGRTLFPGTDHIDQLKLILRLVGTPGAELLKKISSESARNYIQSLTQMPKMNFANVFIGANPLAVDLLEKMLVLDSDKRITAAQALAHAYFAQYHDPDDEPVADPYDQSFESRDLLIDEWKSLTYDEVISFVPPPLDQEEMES

p38-alpha (Homo sapiens) [8] = target: p38-alpha (Homo sapiens) (UniProt Q16539); conditions: cited from earlier work; remark: listed apart in the source

Chain of MK2 (P49137 whole entry): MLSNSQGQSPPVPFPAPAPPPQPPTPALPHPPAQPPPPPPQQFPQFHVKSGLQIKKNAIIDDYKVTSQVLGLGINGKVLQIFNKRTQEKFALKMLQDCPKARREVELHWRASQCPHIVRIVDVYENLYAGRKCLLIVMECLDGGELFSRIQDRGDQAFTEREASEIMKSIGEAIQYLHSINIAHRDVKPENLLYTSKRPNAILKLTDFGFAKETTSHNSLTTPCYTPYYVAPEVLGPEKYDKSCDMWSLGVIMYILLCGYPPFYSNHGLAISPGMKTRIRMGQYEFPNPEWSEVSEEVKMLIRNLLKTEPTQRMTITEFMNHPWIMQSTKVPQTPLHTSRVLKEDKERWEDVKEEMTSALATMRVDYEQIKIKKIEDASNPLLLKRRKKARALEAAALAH
Chain of ATF2 (P15336 whole entry): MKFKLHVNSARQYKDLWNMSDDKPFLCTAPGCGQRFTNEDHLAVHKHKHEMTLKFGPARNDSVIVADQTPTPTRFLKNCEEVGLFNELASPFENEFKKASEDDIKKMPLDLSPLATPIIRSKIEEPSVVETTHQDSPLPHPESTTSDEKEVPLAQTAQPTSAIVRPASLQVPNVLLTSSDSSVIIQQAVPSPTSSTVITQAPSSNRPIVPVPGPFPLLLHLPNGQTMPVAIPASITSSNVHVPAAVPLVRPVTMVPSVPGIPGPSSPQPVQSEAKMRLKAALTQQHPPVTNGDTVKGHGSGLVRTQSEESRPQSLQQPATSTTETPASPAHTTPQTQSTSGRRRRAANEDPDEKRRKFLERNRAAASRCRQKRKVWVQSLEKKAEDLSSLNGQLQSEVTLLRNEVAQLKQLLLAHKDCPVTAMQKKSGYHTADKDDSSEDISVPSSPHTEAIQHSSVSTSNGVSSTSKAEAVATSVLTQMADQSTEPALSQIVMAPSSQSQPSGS
T1 sequence (Q16539 whole entry): as the sequence (Q16539 whole entry) above

## Nc1ncnc2c1ncn2[C@@H]1O[C@H](COP(=O)(O)OP(=O)(O)OP(=O)(O)O)[C@@H](O)[C@H]1O [ATP]
p38
  Kd: 67 µM

## O=C(CCCc1ccc(-c2ccccc2F)cc1)Nc1ccc(O)cc1 [CMPD1]
[1]
  Ki: 330 nM
[2]
  IC50: 23.4 ± 1.9 µM
[3]; 0.5 nM p38, 100 nM ATF2, 10 nM MK2, 50 uM ATP, measured at 120 min, ± standard error
  IC50: 27 ± 16 µM
[3]; ratio of dual substrate assay IC50s
  substrate selectivity = (ATF2 IC50)/(MK2 IC50), dual substrate assay: 0.66
[4]
  IC50: 41 ± 2.2 µM
[5]; ATF2 only, measured at 120 min, ± standard error
  IC50: > 400 µM
[5]; ratio of single substrate assay IC50s
  substrate selectivity = (ATF2 IC50)/(MK2 IC50), single substrate assay: >17
[6]
  Ki: > 20 µM

## ATF2 (from UniProt P15336)
p38-alpha (Homo sapiens) [7]
  Kd: 38 µM

## MK2 (from UniProt P49137)
p38-alpha (Homo sapiens) [8]
  Kd: 20 nM
